Test results from patent US8361988B2, “Nucleoside and nucleotide analogues with quaternary carbon centers and methods of use” (Institut de Recherches Cliniques de Montreal, priority 2007, dated 2013).

Key:
[1] = biological target: T1, Drosophila melanogaster dNK (Drosophila melanogaster, UniProt Q9XZT6); assay: Phosphorylation assay (spectrophotometric coupled-enzyme), D. melanogaster dNK; format: biochemical; conditions: substrate at 100 μM; 37° C.; 1 mM ATP; triplicate
T1 sequence (Q9XZT6 1-250): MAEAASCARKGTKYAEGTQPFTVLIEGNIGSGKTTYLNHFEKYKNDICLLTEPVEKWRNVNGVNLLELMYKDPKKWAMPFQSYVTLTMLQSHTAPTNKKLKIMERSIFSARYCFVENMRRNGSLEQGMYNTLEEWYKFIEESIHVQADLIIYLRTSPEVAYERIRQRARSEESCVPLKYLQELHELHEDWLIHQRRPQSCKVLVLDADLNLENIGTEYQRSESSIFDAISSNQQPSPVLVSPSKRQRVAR
Description: (§1) Compounds of the invention were also tested in a phosphorylation assay using three deoxynucleoside kinases. […] The compounds were at substrate concentration of 100 μM.
(§2) Kinetic assay. […] Briefly, the individual nucleosides at 100 μM were prepared in reaction buffer containing 50 mM Tris-HCl (pH 7.5), 0.1 M KCl, 5 mM MgCl2, 1 mM DTT, 1 mM ATP, 0.21 mM phosphoenolpyruvate, 0.18 mM NADH, and 2 units/ml pyruvate kinase and 2 units/ml lactate dehydrogenase (Roche Biochemicals, Indianapolis, Ind.). Assays were performed at 37° C. by measuring the absorbance change at 340 nm. The enzyme amount was adjusted to limit NADH turnover to 10% over the time of the experiment. All experiments were performed in triplicate.

ZR-75-1 = assay: MTT cell proliferation assay, ZR-75-1; format: cell-based; conditions: Homo sapiens, concentration reducing cell growth by 50% after 72 hours, 1% DMSO
Description: (§3) The antitumor activities of the compounds of the invention were evaluated by a cellular proliferation assay. The MTT [3-(4,5-dimethylthiazol-2-yl)-2,5-diphenyltetrazolium bromide] cell proliferation assay, first described by Mosmann (Mosmann T., “Rapid colorimetric assay for cellular growth and survival: application to proliferation and cytotoxicity assays,” J. Immunol. Methods 1983 Dec. 16; 65(1-2):55-63, and incorporated by reference in its entirety) is based on the ability of active mitochondrial reductase enzymes from viable cells to cleave the tetrazolium rings of the pale yellow MTT. The cleavage reaction form a purple formazan crystals which is largely impermeable to cell membranes resulting in its accumulation within healthy cells. Solubilisation of the cells by addition of a detergent liberates and solubilizes the formazan crystals. The number of surviving cells is directly proportional to the level of the formazan product created. The color can then be quantified spectrophotometrically. The production of purple formazan in cells treated with a compound is measured relative to the production in control cells, and dose-response curves can be generated. This assay measures the cell proliferation rate and conversely, when metabolic events lead to apoptosis or necrosis, the reduction in cell viability, thus also allowing the evaluation of the cytotoxicity of the analogues synthesized in the laboratory.
(§4) For Tables 3 and 4, the assays were performed with 1% DMSO. The abbreviation “n.d.” means “not determined.” The values EC50, CC50, and SI have the following definitions.
(§5) Cell growth equals total cell count without any inhibitor after 72 hours minus initial cell count. Total cell counts after 72 hrs of growth range from 230 to 346% of initial cell counts depending on the cell line.
(§6) Total cell counts after 24 hrs of growth range from 103 to 109% of initial cell counts depending on the cell line.
(§7) SI: Selectivity Index is the ratio CC50/EC50.

[2] = MTT cell proliferation assay, ZR-75-1; format: cell-based; conditions: human, ZR-75-1 cells, concentration causing 50% cell death of initial cell count over 24 hours, 1% DMSO
Description: as §3, §4, §5, §6, §7

in vitro [3] = conditions: human, NCI H1395 cells
human dCK = human dCK (Homo sapiens, UniProt P27707); assay: Phosphorylation assay (spectrophotometric coupled-enzyme), human dCK; format: biochemical; conditions: substrate at 100 μM; 37° C.; 1 mM ATP; triplicate
human dCK, sequence (P27707 whole entry): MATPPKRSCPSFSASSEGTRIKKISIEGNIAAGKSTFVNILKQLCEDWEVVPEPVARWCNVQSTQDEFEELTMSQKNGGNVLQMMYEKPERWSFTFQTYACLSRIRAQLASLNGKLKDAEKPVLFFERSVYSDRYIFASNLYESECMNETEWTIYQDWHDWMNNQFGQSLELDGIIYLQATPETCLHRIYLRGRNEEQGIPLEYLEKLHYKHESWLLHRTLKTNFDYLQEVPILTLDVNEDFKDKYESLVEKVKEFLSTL
Description: as §1, §2

PFSK-1 = assay: MTT cell proliferation assay, PFSK-1; format: cell-based; conditions: Homo sapiens, concentration reducing cell growth by 50% after 72 hours, 1% DMSO
Description: (§8) The antitumor activities of the compounds of the invention were evaluated by a cellular proliferation assay. […] The cleavage reaction form a purple formazan crystals which is largely impermeable to cell membranes resulting in its accumulation within healthy cells. Solubilisation of the cells by addition of a detergent liberates and solubilizes the formazan crystals. The number of surviving cells is directly proportional to the level of the formazan product created. The color can then be quantified spectrophotometrically. The production of purple formazan in cells treated with a compound is measured relative to the production in control cells, and dose-response curves can be generated. This assay measures the cell proliferation rate and conversely, when metabolic events lead to apoptosis or necrosis, the reduction in cell viability, thus also allowing the evaluation of the cytotoxicity of the analogues synthesized in the laboratory.
as §4
(§9) Cell growth equals total cell count without any inhibitor after 72 hours minus initial cell count.
as §7

[4] = MTT cell proliferation assay, PFSK-1; format: cell-based; conditions: human, PFSK-1 cells, concentration causing 50% cell death of initial cell count over 24 hours, 1% DMSO
Description: as §8, §4, §9, §7

in vitro [5] = conditions: human, NCI H2052 cells
Panc 02.03 = assay: MTT cell proliferation assay, Panc 02.03; format: cell-based; conditions: Homo sapiens, concentration reducing cell growth by 50% after 72 hours, 1% DMSO
Description: as §8, §4, §9, §7

[6] = MTT cell proliferation assay, Panc 02.03; format: cell-based; conditions: human, Panc 02.03 cells, concentration causing 50% cell death of initial cell count over 24 hours, 1% DMSO
Description: as §8, §4, §9, §7

in vitro [7] = conditions: human, MOLT-4 cells

D. melanogaster dNK substrate phosphorylation [1]	Human dCK kinase substrate phosphorylation (human dCK)	SMILES	EC50 (ZR-75-1; ZR-75-1, 72 h)	CC50 at 24 h [2]	CC50 at 24 h (in vitro [3])	EC50 (PFSK-1; PFSK-1, 72 h)	CC50 at 24 h [4]	CC50 at 24 h (in vitro [5])	EC50 (Panc 02.03)	CC50 at 24 h [6]	CC50 at 24 h (in vitro [7])	EC50 (ZR-75-1)	EC50 (PFSK-1)
0.2 10^6 μmol/min mg	63 10^−3 μmol/min mg	CC1(C(N)=O)CC(n2ccc(N)nc2=O)O[C@@H]1CO (mixture of isomers) [LCB-1018]	> 500 µM	> 500 µM	> 500 µM	> 500 µM	> 500 µM	> 500 µM	> 500 µM	> 500 µM			
		Nc1ccn([C@@H]2O[C@H](CO)[C@@H](O)[C@@H]2O)c(=O)n1 [Cytarabine, reference compound]		> 500 µM	428 µM		> 500 µM	> 500 µM	300 µM	> 500 µM	> 500 µM	> 500 µM	360 µM
<0.1 10^6 μmol/min mg	<1 10^−3 μmol/min mg	COC(=O)c1cn([C@H]2S[C@@H](CO)C(O)[C@@H]2O)nn1 (stereo partly shown) [LCB-1013]											
5.94 10^6 μmol/min mg	17 10^−3 μmol/min mg	CC1(CO)CC(n2ccc(N)nc2=O)O[C@@H]1CO (mixture of isomers) [LCB-1012]	> 500 µM	> 500 µM	> 500 µM	> 500 µM	> 500 µM	> 500 µM					
0.35 10^6 μmol/min mg	12 10^−3 μmol/min mg	CC1(CO)C[C@H](n2ccc(N)nc2=O)O[C@@H]1CO (mixture of isomers) [LCB-1011]	> 500 µM	> 500 µM	> 500 µM	> 500 µM	> 500 µM	> 500 µM					
